Literature values in patent publication US6630178B1, “Composition comprising soy protein, dietary fibres and a phytoestrogen compound and use thereof in the prevention and/or treatment of cardiovascular diseases” (Nutri Pharma Asa, priority 1998, dated 2003).

Test system: estrogenic effect
Conditions: estradiol = 100; in vitro

In the case of `O=c1c(-c2ccc(O)cc2)coc2cc(O)ccc12` [daidzein], the “relative estrogenic potency as compared to estradiol” value is listed as 0.013.
